Laboratory results: patent publication US4542018A, “Teichomycin A2 pure single factors 1, 2, 3, 4 and 5 and method for their production” (Gruppo Lepetit S.p.A., priority 1982, dated 1985)

Key:
S. aureus ATCC 6538 = assay: Microbiological potency by agar diffusion method, Teichomycin A2 complex as standard; assay type: cell-based; details: 2.5-20 μg/ml, 37° C., 18 hours
Description: In particular an adeguate amount of Teichomycin A2 factor 1, Teichomycin A2 factor 2, Teichomycin A2 factor 3, Teichomycin A2 factor 4, Teichomycin A2 factor 5 and Teichomycin A2 complex used as the standard is dissolved in dimethylformamide at a concentration of 2000 μg/ml. These solutions are further diluted using phosphate buffer 0.067 M pH 7.4 supplemented with 1% bovine serum in order to provide the following concentrations: 2.5, 5, 10, and 20 μg/ml.
Filter paper discs are then soaked into the sample solutions and placed at regular intervals on the surface of agar plates seeded with a suspension of the test microorganism. The plates are incubated at 37° C. for 18 hours and then the diameter of the inhibition zones are measured. The data obtained are fed into a computer to calculate the potency of the individual factors relative to the complex.

Streptococcus mitis = assay: In vitro antibacterial activity (MIC), two-fold dilution in microtiter system; assay type: cell-based; details: 1 tested strain, clinical isolate, Todd-Hewitt broth, 18-24 h at 37° C.
Description: (§1) Penassay broth (Difco) and Todd-Hewitt broth (Difco) were used for staphylococci and streptococci respectively. Overnight broth cultures were diluted so that the final inoculum was about 10^3 colony forming units/ml.

Streptococcus pneumoniae = assay: as above; assay type: cell-based; details: 6 tested strains, clinical isolates, Todd-Hewitt broth, 18-24 h at 37° C.
Description: as §1

Streptococcus bovis = assay: as above; assay type: cell-based; details: 1 tested strain, clinical isolate, Todd-Hewitt broth, 18-24 h at 37° C.
Description: as §1

Staphylococcus aureus = assay: as above; assay type: cell-based; details: 5 tested strains, clinical isolates, Penassay broth, 18-24 h at 37° C.
Description: as §1

Streptococcus agalactiae = assay: as above; assay type: cell-based; details: 1 tested strain, clinical isolate, Todd-Hewitt broth, 18-24 h at 37° C.
Description: as §1

Streptococcus faecalis = assay: as above; assay type: cell-based; details: 5 tested strains, clinical isolates, Todd-Hewitt broth, 18-24 h at 37° C.
Description: as §1

[1] = test system: Staphylococcus epidermidis; assay: as above; assay type: cell-based; details: 4 tested strains, clinical isolates, Penassay broth, 18-24 h at 37° C.
Description: as §1

Streptococcus sanguis = assay: as above; assay type: cell-based; details: 1 tested strain, clinical isolate, Todd-Hewitt broth, 18-24 h at 37° C.
Description: as §1

Streptococcus salivarius = assay: as above; assay type: cell-based; details: 1 tested strain, clinical isolate, Todd-Hewitt broth, 18-24 h at 37° C.
Description: as §1

Streptococcus pyogenes = assay: as above; assay type: cell-based; details: 7 tested strains, clinical isolates, Todd-Hewitt broth, 18-24 h at 37° C.
Description: as §1

Solubility = assay type: physicochemical; details: for solubility in water: water at pH>7.0 or at pH<2
Gram-positive bacteria = assay: In vitro antibacterial spectrum; assay type: cell-based
Description: as §1

S. pneumoniae L 44 = assay: In vivo antibacterial activity, experimental infection in mice; details: s.c.
Description: (§2) Teichomycin A2 factors 2,3,4 and 5 were tested in the experimental infections caused by S. pneumoniae and by S. pyogenes in mice. The experiments were carried out in comparison with Teichomycin A2 complex.

S. pyogenes L 49 = assay: as above; details: s.c.
Description: as §2

Structure (SMILES)	microbiological potency relative to the complex (S. aureus ATCC 6538) [U/mg]	M.I.C. (Streptococcus mitis) [µg/mL]	M.I.C. (Streptococcus pneumoniae) [µg/mL]	M.I.C. (Streptococcus bovis) [µg/mL]	M.I.C. (Staphylococcus aureus) [µg/mL]	M.I.C. (Streptococcus agalactiae) [µg/mL]	M.I.C. (Streptococcus faecalis) [µg/mL]	M.I.C. [1] [µg/mL]	M.I.C. (Streptococcus sanguis) [µg/mL]	M.I.C. (Streptococcus salivarius) [µg/mL]	M.I.C. (Streptococcus pyogenes) [µg/mL]	solubility in chloroform, benzene, n-hexane, acetonitrile, ethyl ether, acetone, ethyl acetate, carbon tetrachloride (Solubility)	solubility in dimethylformamide, dimethylsulfoxide and propyleneglycol (Solubility)	solubility in methanol and ethanol (Solubility)	solubility in methylcellosolve and glycerol (Solubility)	solubility in water (Solubility)	in vitro antibacterial activity (spectrum) (Gram-positive bacteria)	ED50 (S. pneumoniae L 44)	ED50 (S. pyogenes L 49)
CCCCC/C=C\CCC(=O)N[C@H]1[C@H](Oc2c3cc4cc2Oc2ccc(cc2Cl)[C@@H](O[C@@H]2O[C@H](CO)[C@@H](O)[C@H](O)[C@H]2NC(C)=O)[C@@H]2NC(=O)[C@H](NC(=O)[C@@H]4NC(=O)[C@H]4NC(=O)[C@@H](Cc5ccc(c(Cl)c5)O3)NC(=O)[C@H](N)c3ccc(O)c(c3)Oc3cc(O)cc4c3)c3ccc(O)c(c3)-c3c(O[C@H]4O[C@H](CO)[C@@H](O)[C@H](O)[C@@H]4O)cc(O)cc3[C@@H](C(=O)O)NC2=O)O[C@H](CO)[C@@H](O)[C@@H]1O [Teichomycin A2 factor 1]	841	0.025	0.1 to 0.2	0.4	0.8 to 1.6	0.1	0.2 to 0.4	0.2 to 1.6	0.1	0.2	0.05 to 0.1	almost insoluble	freely soluble	poorly soluble	slightly soluble	freely soluble	mainly active against Gram-positive bacteria	–	–
CC(=O)N[C@H]1[C@H](O[C@@H]2c3ccc(c(Cl)c3)Oc3cc4cc(c3O[C@@H]3O[C@H](CO)[C@@H](O)[C@H](O)[C@H]3NC(=O)CCCCCCC(C)C)Oc3ccc(cc3Cl)C[C@H]3NC(=O)[C@H](N)c5ccc(O)c(c5)Oc5cc(O)cc(c5)[C@H](NC3=O)C(=O)N[C@H]4C(=O)N[C@H]3C(=O)N[C@@H]2C(=O)N[C@H](C(=O)O)c2cc(O)cc(O[C@H]4O[C@H](CO)[C@@H](O)[C@H](O)[C@@H]4O)c2-c2cc3ccc2O)O[C@H](CO)[C@@H](O)[C@@H]1O [Teichomycin A2 factor 2]	1086	0.025	0.05 to 0.1	0.4	0.8 to 1.6	0.1	0.1 to 0.4	0.1 to 1.6	0.1	0.2	0.025 to 0.1	almost insoluble	freely soluble	poorly soluble	slightly soluble	freely soluble	mainly active against Gram-positive bacteria	0.28 (0.22-0.34) mg/kg/day	0.15 (0.13-0.18) mg/kg/day
CCCCCCCCCC(=O)N[C@H]1[C@H](Oc2c3cc4cc2Oc2ccc(cc2Cl)[C@@H](O[C@@H]2O[C@H](CO)[C@@H](O)[C@H](O)[C@H]2NC(C)=O)[C@@H]2NC(=O)[C@H](NC(=O)[C@@H]4NC(=O)[C@H]4NC(=O)[C@H](Cc5ccc(c(Cl)c5)O3)NC(=O)[C@H](N)c3ccc(O)c(c3)Oc3cc(O)cc4c3)c3ccc(O)c(c3)-c3c(O[C@H]4O[C@H](CO)[C@@H](O)[C@H](O)[C@@H]4O)cc(O)cc3[C@@H](C(=O)O)NC2=O)O[C@H](CO)[C@@H](O)[C@@H]1O [Teichomycin A2 factor 3]	1131	0.0125	0.05 to 0.1	0.2	0.4 to 0.8	0.05	0.1 to 0.2	0.2 to 0.8	0.1	0.1	0.025 to 0.05	almost insoluble	freely soluble	poorly soluble	slightly soluble	freely soluble	mainly active against Gram-positive bacteria	0.27 (0.23-0.32) mg/kg/day	0.13 (0.11-0.16) mg/kg/day
CCC(C)CCCCCCC(=O)N[C@H]1[C@H](Oc2c3cc4cc2Oc2ccc(cc2Cl)[C@@H](O[C@@H]2O[C@H](CO)[C@@H](O)[C@H](O)[C@H]2NC(C)=O)[C@@H]2NC(=O)[C@H](NC(=O)[C@@H]4NC(=O)[C@H]4NC(=O)[C@@H](Cc5ccc(c(Cl)c5)O3)NC(=O)[C@H](N)c3ccc(O)c(c3)Oc3cc(O)cc4c3)c3ccc(O)c(c3)-c3c(O[C@H]4O[C@H](CO)[C@@H](O)[C@H](O)[C@@H]4O)cc(O)cc3[C@@H](C(=O)O)NC2=O)O[C@H](CO)[C@@H](O)[C@@H]1O (stereo partly shown) [Teichomycin A2 factor 4]	1066	0.025	0.05 to 0.1	0.4	0.2 to 0.8	0.1	0.1 to 0.4	0.2 to 0.8	0.05	0.05	0.006 to 0.05	almost insoluble	freely soluble	poorly soluble	slightly soluble	freely soluble	mainly active against Gram-positive bacteria	–	–
CC(=O)N[C@H]1[C@H](O[C@@H]2c3ccc(c(Cl)c3)Oc3cc4cc(c3O[C@@H]3O[C@H](CO)[C@@H](O)[C@H](O)[C@H]3NC(=O)CCCCCCCC(C)C)Oc3ccc(cc3Cl)C[C@H]3NC(=O)[C@H](N)c5ccc(O)c(c5)Oc5cc(O)cc(c5)[C@H](NC3=O)C(=O)N[C@H]4C(=O)N[C@H]3C(=O)N[C@@H]2C(=O)N[C@H](C(=O)O)c2cc(O)cc(O[C@H]4O[C@H](CO)[C@@H](O)[C@H](O)[C@@H]4O)c2-c2cc3ccc2O)O[C@H](CO)[C@@H](O)[C@@H]1O [Teichomycin A2 factor 5]	954	0.025	0.05 to 0.1	0.4	0.2 to 0.8	0.1	0.1 to 0.4	0.2 to 0.8	0.05	0.05	0.006 to 0.05	almost insoluble	freely soluble	poorly soluble	slightly soluble	freely soluble	mainly active against Gram-positive bacteria	0.13 (0.10-0.15) mg/kg/day	0.10 (0.098-0.13) mg/kg/day
